In PMC11013419, “Understanding Antidiabetic Potential of Oligosaccharides from Red Alga Dulse Devaleraea inkyuleei Xylan by Investigating α-Amylase and α-Glucosidase Inhibition” (Molecules, 2024):
pIC50, pKi: −log10 of the molar value.

What was measured:
MGAM [1] = molecular target: MGAM; design: method as in PMID 22058037; details: as reported; cited from earlier work
[2] = molecular target: T1, recombined human maltase-glucoamylase (MGAM) (Homo sapiens, UniProt O43451); test: MGAM inhibition assay (glucose released from maltose); format: biochemical; details: maltose substrate, 37 °C, pH 6.4
T1 construct: made in house
Experimental: (§1) For this experiment, recombined human maltase-glucoamylase (MGAM) was prepared as previously reported and dissolved in 0.1 M phosphate buffer (pH 6.4) to produce a solution at 0.5 U/mL. Pre-incubation was initiated by mixing 20 µL of MGAM solution with 20 µL of inhibitor or distilled water for 10 min at 37 °C. Then, 40 µL of 8 mM maltose or phosphate buffer was added and the mixture was incubated at 37 °C for 10 min, and the reaction was stopped by boiling for 10 min and cooling in an ice bath. Glucose was quantified using a Glucose CII-test (Wako Pure Chemical Industries, Osaka, Japan). The 20 µL reaction mixture was added to a 100 µL of Glucose CII-test. The reaction proceeded for 10 min at 37 °C, and the absorbance at 492 nm was measured. The inhibition was analysed at different inhibitor and substrate concentrations. The half-maximum inhibition concentration (IC50) was calculated using nonlinear regression. The MGAM inhibitory activity was calculated as follows: MGAM inhibitory activity=1−As−A0/Ac×100 where As represents the absorbance of the sample, Ac is the absorbance of the control without the inhibitor, and A0 is the absorbance of the sample without MGAM.

[3] = molecular target: T2, α-amylase from porcine pancreas (Sus scrofa, UniProt P00690); test: α-Amylase inhibition assay (starch, DNS method); format: biochemical; details: for pIC50: porcine pancreas α-amylase, 1% starch, 37 °C, pH 6.9
T2 construct: α-amylase from porcine pancreas (EC 3.2.1.1), type VI-B; purchased Sigma Aldrich type VI-B; host or cells: porcine pancreas
T2 sequence (P00690 16-511): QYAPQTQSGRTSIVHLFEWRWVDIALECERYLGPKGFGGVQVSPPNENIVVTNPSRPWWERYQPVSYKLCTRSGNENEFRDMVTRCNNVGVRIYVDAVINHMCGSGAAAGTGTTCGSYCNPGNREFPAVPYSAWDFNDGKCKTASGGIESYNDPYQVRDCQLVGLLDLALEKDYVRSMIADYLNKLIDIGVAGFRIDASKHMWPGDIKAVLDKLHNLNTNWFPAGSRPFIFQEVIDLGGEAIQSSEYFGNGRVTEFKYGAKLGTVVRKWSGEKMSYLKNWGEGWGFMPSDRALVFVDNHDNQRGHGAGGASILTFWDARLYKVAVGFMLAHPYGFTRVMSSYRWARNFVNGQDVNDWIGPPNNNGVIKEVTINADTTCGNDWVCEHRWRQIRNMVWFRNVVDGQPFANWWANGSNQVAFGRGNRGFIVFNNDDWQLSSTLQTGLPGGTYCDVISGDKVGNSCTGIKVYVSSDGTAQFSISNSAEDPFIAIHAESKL
Experimental: (§2) The α-amylase from porcine pancreas solution was freshly prepared by mixing enzyme powder with 20 mM phosphate buffer (pH 6.9) containing 6.7 mM NaCl to produce a solution at 3 U/mL [39]. Pre-incubation was initiated by mixing 20 µL of α-amylase solution with 20 µL of inhibitor or distilled water for 10 min at 37 °C. Then, 20 µL of 1% (w/v) starch (prepared in 20 mM phosphate buffer (pH 6.9) containing 6.7 mM NaCl and heated at 100 °C for 10 min) or phosphate buffer was added, and the mixture was incubated at 37 °C for 10 min. The reaction was stopped by boiling the mixture for 10 min and cooling in an ice bath. The concentration of reducing sugars was calculated by the DNS method. The inhibition was analysed at different inhibitor and substrate concentrations. The half-maximum inhibition concentration (IC50) was calculated using nonlinear regression. The α-amylase inhibitory activity was calculated as follows: α-amylase inhibitory activity=1−As−A0/Ac×100 where As represents the absorbance of the sample, Ac is the absorbance of the control without the inhibitor, and A0 is the absorbance of the sample without α-amylase.

MGAM [4] = molecular target: T3, MGAM (Homo sapiens, UniProt O43451); test: Kinetics of MGAM inhibition (Michaelis–Menten, Lineweaver–Burk); format: biochemical; details: for Inhibition Type (MGAM): Lineweaver–Burk plot; for Vmax^app, inhibitor concentration A / Vmax^app, inhibitor concentration B / Vmax^app, inhibitor concentration C: MGAM, without inhibitor 0.089; for Vmax^app, inhibitor concentration A: A: X2 1.49, X3 1.63, DX3 1.33, DX4 1.28 mg/mL; for Vmax^app, inhibitor concentration B: B: X2 2.79, X3 4.08, DX3 3.32, DX4 3.19 mg/mL; for Vmax^app, inhibitor concentration C: C: X2 3.73, X3 10.19, DX3 8.30, DX4 7.98 mg/mL; for pKi: competitive inhibition constant
T3 construct: made in house
Experimental: as §1
To study the kinetics of MGAM and α-amylase inhibition by XOS, the initial velocity in absorbance/min (ΔOD/min) was calculated at different substrate concentrations (0 to 10 mg/mL starch concentration for α-amylase and 0 to 8 mM maltose concentration for MGAM) and XOS concentrations. The values of initial velocity at different substrate concentrations at each XOS concentration was plotted (Michaelis–Menten plot), as well as the double reciprocal plot at each XOS concentration (Lineweaver–Burk plot).
The Michaelis–Menten equation for competitive inhibition is given as follows: v=Vmax×S/Km1+I/Ki+S=Vmaxapp×S/Kmapp+S
And the corresponding Lineweaver–Burk equation is given as follows: 1/v=Km/Vmax1+I/Ki1/S+1/Vmax where v is the initial velocity, Vmax is the maximum initial reaction velocity, I is the concentration of the inhibitor, S is the concentration of the substrate, Km is the Michaelis constant, and Ki is the competitive inhibition constant.

α-amylase = molecular target: T4, α-amylase (Sus scrofa, UniProt P00690); test: Kinetics of α-amylase inhibition (Michaelis–Menten, Lineweaver–Burk); format: biochemical, porcine
T4 construct: α-amylase from porcine pancreas (EC 3.2.1.1), type VI-B; purchased Sigma Aldrich type VI-B; host or cells: porcine pancreas
T4 sequence (P00690 16-511): T2 sequence (P00690 16-511)
Experimental: as §2, with “α-amylase. […]” for “α-amylase.”

α-glucosidase = tested on: α-glucosidase; design: method as in doi:10.1007/s12257-017-0049-8; details: at 10 mg/mL; cited from earlier work

T3 sequence (O43451 whole entry): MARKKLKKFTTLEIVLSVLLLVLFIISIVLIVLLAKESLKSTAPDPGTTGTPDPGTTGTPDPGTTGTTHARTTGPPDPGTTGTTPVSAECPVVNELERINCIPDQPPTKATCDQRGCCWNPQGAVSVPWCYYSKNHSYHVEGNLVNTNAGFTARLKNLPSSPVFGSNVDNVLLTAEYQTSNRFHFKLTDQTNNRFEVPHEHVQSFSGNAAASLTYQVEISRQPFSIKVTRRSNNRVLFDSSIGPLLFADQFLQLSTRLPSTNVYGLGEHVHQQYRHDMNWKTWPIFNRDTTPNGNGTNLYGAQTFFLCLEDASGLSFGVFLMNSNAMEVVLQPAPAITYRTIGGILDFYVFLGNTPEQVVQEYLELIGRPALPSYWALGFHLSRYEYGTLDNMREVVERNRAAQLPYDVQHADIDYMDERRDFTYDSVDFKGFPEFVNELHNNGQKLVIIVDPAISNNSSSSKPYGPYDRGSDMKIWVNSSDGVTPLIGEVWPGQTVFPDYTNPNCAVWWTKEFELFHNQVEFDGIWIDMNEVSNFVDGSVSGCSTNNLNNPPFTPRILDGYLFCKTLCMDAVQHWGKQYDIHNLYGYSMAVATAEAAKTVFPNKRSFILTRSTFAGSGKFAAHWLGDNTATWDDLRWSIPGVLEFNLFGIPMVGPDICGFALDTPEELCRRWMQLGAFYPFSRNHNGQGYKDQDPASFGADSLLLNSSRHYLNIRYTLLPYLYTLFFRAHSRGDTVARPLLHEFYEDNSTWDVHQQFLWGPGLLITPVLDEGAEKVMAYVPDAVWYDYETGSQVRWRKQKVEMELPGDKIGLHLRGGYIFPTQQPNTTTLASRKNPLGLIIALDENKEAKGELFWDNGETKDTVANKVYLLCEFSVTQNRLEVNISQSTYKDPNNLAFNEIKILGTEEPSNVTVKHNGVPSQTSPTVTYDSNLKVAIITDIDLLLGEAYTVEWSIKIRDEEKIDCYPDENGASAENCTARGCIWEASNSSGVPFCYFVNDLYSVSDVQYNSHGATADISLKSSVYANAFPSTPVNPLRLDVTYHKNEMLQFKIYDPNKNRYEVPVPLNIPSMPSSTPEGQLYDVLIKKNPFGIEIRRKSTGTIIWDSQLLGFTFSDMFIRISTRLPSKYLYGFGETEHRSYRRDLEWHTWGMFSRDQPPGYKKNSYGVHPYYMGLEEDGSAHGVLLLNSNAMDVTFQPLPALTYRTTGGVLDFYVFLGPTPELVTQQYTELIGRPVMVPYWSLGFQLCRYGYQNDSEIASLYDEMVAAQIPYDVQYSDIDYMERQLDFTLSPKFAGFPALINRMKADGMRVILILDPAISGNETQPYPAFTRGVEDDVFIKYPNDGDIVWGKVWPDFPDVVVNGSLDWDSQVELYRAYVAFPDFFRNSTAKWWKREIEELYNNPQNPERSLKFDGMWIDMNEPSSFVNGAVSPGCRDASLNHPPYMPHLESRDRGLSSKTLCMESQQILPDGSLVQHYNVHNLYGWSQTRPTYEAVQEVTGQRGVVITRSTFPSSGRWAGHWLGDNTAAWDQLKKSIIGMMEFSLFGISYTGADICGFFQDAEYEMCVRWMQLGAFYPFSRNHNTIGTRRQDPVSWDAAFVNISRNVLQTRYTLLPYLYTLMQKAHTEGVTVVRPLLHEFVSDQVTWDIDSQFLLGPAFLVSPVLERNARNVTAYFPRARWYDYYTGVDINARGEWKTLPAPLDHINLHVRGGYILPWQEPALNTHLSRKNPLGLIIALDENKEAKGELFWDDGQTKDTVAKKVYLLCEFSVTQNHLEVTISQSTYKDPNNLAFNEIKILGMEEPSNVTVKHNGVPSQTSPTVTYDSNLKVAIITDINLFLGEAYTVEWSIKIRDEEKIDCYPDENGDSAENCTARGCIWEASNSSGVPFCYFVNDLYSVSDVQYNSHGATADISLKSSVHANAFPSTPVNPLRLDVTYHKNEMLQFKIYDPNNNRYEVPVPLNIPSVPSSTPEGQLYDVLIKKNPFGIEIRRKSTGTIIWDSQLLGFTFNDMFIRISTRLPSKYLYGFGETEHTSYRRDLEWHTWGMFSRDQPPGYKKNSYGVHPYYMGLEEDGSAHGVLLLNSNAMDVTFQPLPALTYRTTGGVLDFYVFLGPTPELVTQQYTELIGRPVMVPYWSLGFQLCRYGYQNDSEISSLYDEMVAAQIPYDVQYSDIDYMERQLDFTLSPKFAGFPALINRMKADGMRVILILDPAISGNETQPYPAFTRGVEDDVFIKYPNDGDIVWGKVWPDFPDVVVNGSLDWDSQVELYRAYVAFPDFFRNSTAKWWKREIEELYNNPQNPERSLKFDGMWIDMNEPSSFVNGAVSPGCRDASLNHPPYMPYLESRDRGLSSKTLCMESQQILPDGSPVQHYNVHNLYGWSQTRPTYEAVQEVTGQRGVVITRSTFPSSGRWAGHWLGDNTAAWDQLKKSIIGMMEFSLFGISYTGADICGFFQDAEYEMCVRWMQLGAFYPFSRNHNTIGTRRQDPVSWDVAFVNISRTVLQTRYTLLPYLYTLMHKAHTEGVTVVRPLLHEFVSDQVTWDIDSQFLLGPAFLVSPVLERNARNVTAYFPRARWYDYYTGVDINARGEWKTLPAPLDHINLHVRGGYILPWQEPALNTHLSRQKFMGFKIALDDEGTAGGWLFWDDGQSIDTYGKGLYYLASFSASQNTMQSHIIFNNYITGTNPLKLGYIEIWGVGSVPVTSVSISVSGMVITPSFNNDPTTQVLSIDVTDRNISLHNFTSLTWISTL
T1 sequence (O43451 whole entry): as above

In the case of C[C@H]1O[C@H](O[C@H]2[C@H](O)[C@@H](O)[C@@H](O[C@H]3[C@H](O)[C@@H](O)C(O)O[C@@H]3CO)O[C@@H]2CO)[C@H](O)[C@@H](O)[C@@H]1N[C@H]1C=C(CO)[C@@H](O)[C@H](O)[C@H]1O (stereo partly shown) [Acarbose], the pKi (MGAM [1]) is given as 4.21 and the “Ki for MGAM” value (MGAM [1]) is given as 40 µg/mL.

In the case of OC1COC(OC2C(O)COC(OC3COC(O)C(O)C3O)C2O)C(O)C1O (stereo not drawn) [DX3, β-(1→3)-xylosyl-β-(1→4)-xylobiose], the pIC50 [2] was 1.49, the pIC50 [3] was 0.89 and the “Inhibition Type (MGAM)” value (MGAM [4]) was “Competitive”. For the same molecule, the “Vmax^app, inhibitor concentration A” value (MGAM [4]) was 0.101 DO/min, the “Vmax^app, inhibitor concentration B” value (MGAM [4]) was 0.093 DO/min and the “Vmax^app, inhibitor concentration C” value (MGAM [4]) was 0.102 DO/min. For the same molecule, the pKi (MGAM [4]) was 1.35.

With OC1COC(OC2C(O)COC(OC3COC(OC4COC(O)C(O)C4O)C(O)C3O)C2O)C(O)C1O (stereo not drawn) [DX4, β-(1→3)-xylosyl-β-(1→4)-xylotriose] the pIC50 [2] was 1.63, the inhibition at 10640 µg/mL ([3]; at 10.64 mg/mL) was 2.9% and the “Inhibition Type (MGAM)” value (MGAM [4]) was “Competitive”. The “Vmax^app, inhibitor concentration A” value (MGAM [4]) was 0.102 DO/min, the “Vmax^app, inhibitor concentration B” value (MGAM [4]) was 0.105 DO/min and the “Vmax^app, inhibitor concentration C” value (MGAM [4]) was 0.102 DO/min. For the same molecule, the pKi (MGAM [4]) was 1.37.

For OC1COC(OC2COC(O)C(O)C2O)C(O)C1O (stereo not drawn) [X2, β-(1→4)-xylobiose], the pIC50 [2] was 1.35, the pIC50 [3] was 1.19 and the “Inhibition Type (MGAM)” value (MGAM [4]) was “Competitive”. For the same molecule, the “Vmax^app, inhibitor concentration A” value (MGAM [4]) was 0.086 DO/min, the “Vmax^app, inhibitor concentration B” value (MGAM [4]) was 0.086 DO/min and the “Vmax^app, inhibitor concentration C” value (MGAM [4]) was 0.086 DO/min. For the same molecule, the pKi (MGAM [4]) was 1.27, the “Inhibition type (α-amylase)” value (α-amylase; Lineweaver–Burk plot) was “competitive” and the “Vmax^app (α-amylase)” value (α-amylase; X2 12.42 mg/mL, X3 13.58 mg/mL, without inhibitor 0.056) was 0.061 DO/min.

For OC[C@H]1OC(O)[C@H](O)[C@@H](O[C@@H]2O[C@H]3CO[C@@H]([C@@H]2O)[C@@H]3O)[C@H]1O (stereo partly shown) [neoagarobiose], the inhibition rate (α-glucosidase) is given as 35.3%.

For OC[C@H]1O[C@@H](O)[C@H](O)[C@@H](O[C@@H]2O[C@H]3CO[C@@H]([C@@H]2O)[C@@H]3O[C@@H]2O[C@H](CO)[C@H](O)[C@H](O[C@@H]3O[C@H]4CO[C@@H]([C@@H]3O)[C@@H]4O[C@@H]3O[C@H](CO)[C@H](O)[C@H](O[C@@H]4O[C@H]5CO[C@@H]([C@@H]4O)[C@@H]5O)[C@H]3O)[C@H]2O)[C@H]1O [neoagarohexaose], the inhibition rate (α-glucosidase) is given as 17.0%.

In the case of OC[C@H]1O[C@@H](O)[C@H](O)[C@@H](O[C@@H]2O[C@H]3CO[C@@H]([C@@H]2O)[C@@H]3O[C@@H]2O[C@H](CO)[C@H](O)[C@H](O[C@@H]3O[C@H]4CO[C@@H]([C@@H]3O)[C@@H]4O)[C@H]2O)[C@H]1O [neoagarotetraose], the inhibition rate (α-glucosidase) is given as 33.2%.
